Laboratory results from patent US20230002355A1 (NANJING SANHOME PHARMACEUTICAL CO., LTD., priority 2019, published 2023).
Like-named read-outs stand apart in the source and are kept apart here. Each block holds one molecule with its values, some of them ahead of it.

Experiments:
[1] = tested on: NCI-H358 cells; assay: Cell proliferation inhibition test (CCK-8); type: cell-based; settings: NCI-H358 human non-small cell lung cancer cells, 168 h, read-out: NIH358 cell proliferation inhibition IC50
Protocol: Test compounds: The compounds prepared in examples and comparative example of the present disclosure was tested. Each compound was formulated with DMSO into 20 mM. The concentrations of the compounds acting on NCI-H358 cells were 100 μM, 25 μM, 6.25 μM, 1.56 μM, 0.391 μM, 0.098 μM, 0.024 μM, 0.006 μM, 0.0015 μM, and 0.00038 μM successively.
Human non-small cell lung cancer cells NCI-H358 were purchased from the American Type Culture Collection (ATCC).
Reagents: The CCK-8 proliferation inhibition detection kit was purchased from Jiangsu KeyGEN BioTECH Co., Ltd. The CKX41 inverted microscope was purchased from Olympus, Japan. The multi-mode microplate reader was purchased from Molecular Devices, USA. The cell culture incubator was purchased from Thermo, USA.
Cell recovery: A NCI-H358 cell cryogenic vial was taken out from a liquid nitrogen tank, placed in water bath at 37° C., and shaked gently to allow it to thaw. The thawed cryogenic vial was disinfected with alcohol cotton, and opened to aspirate the cell fluid into a centrifuge tube. To the centrifuge tube, 1 mL of serum-containing complete medium was added and well-mixed. The centrifuge tube was placed into a centrifuge, for centrifugation at 1000 rpm for 5 min. Then the supernatant was discarded, and complete medium was added to completely dissipate and resuspend the cells through repeated pipetting. The cells were seeded in petri dishes at appropriate concentrations and cultured in a CO2 incubator at 37° C., with 5% CO2, 95% humidified air.
Cell passage: After the cells grew to about 80-90% confluence, the original culture medium (1640 culture medium+10% FBS+1% penicillin-streptomycin+1 mM sodium pyruvate) was discarded, and 1 mL of PBS was added to wash away the residual medium and then discarded. 1 mL of trypsin digestion solution was added to digest for 1-2 min. […] The cell suspension was collected by gently pipetting, and centrifuged at 1000 rpm for 5 min. After discarding the supernatant, the cells was resuspended in complete medium, seeded in petri dishes at the required density, and then cultured in a CO2 incubator at 37° C., with 5% CO2, 95% humidified air. Depending on cell growth, the culture medium was changed or passaged every 2-3 days.
After NCI-H358 cell passage, the cells were resuspended in fresh culture medium (1640 culture medium+3% FBS+1% penicillin-streptomycin+1 mM sodium pyruvate), and counted. The cells were seeded into a 96-well culture plate at a density of 1.5×10^4 cells/mL, with each well added 100 μL thereto (ie, 1.5×10^3 cells/well). After 24 h, 100 μL of fresh culture medium containing different drug concentrations (2×) was added to the old culture medium. The final concentrations of the compounds were 100 μM, 25 μM, 6.25 μM, 1.56 μM, 0.391 μM, 0.098 μM, 0.024 μM, 0.006 μM, 0.0015 μM, and 0.00038 μM, with each concentration group set two replicate wells. The cells were […] in the incubator again for 168 h. The culture medium in wells was discarded as thoroughly as possible, and 100 μL of culture medium containing CCK-8 (CCK-8:culture medium=1:10) was added. After a certain time of culture in the incubator, the 96-well plate was taken out of the incubator, and allowed to equilibrate at room temperature for 5 min. The absorbance (OD value) at 450 nm was detected in a multi-mode plate reader, and the cell proliferation inhibition rate was calculated. The calculation formula was Inhibition (%)=100−(ODexperiment well−ODblank well)/(ODsolvent control well−ODblank well)×100. According to different drug concentrations and their corresponding inhibition rates, IC50 curves were plotted using GraghPad 5.0 software, to analyze the data and to obtain final IC50.

[2] = Pharmacokinetic experiment in mice; type: in vivo; settings: mouse, plasma, male BALB/c mice; for bioavailability: I.G. 10 mg/kg vs IV 1 mg/kg, read-out: bioavailability F; for AUC(0-inf) / AUC(0-t) / Cmax / half-life: I.G., 10 mg/kg
Protocol: Compounds: The compounds of the present disclosure prepared in the above examples were tested. The drug vehicle was Captisol/50 mM sodium acetate with pH 4.6 (10%/90%, w/v %). Oral drugs were formulated into a 0.5 mg/mL clear solution. Intravenous drug were formulated into a 0.1 mg/mL clear solution.
Animals: Male BALB/c mice, SPF grade, were purchased from Shanghai SIPPR-Bk Lab Animal Co., Ltd, with a weight of 18-20 g, and adapted for 2-3 days before experiments.
Instrument: API4500-type Triple Quadrupole LC/MS System, from AB, United States, equipped with electrospray ion source (ESI) and dual pumps LC-30AD; SIL-30AC autosampler; CTO-30AC column oven; DGU-20A3R degasser; AnalystQSA01.01 chromatography workstation; Milli-Q ultrapure water device (Millipore Inc); QilinbeierVortex-5 shaker; HITACHI CF16RX II desktop high-speed freezing centrifuge.
(1) There were 3 mice per group. The compounds of the examples of the present disclosure were given by intragastric administration (I.G.) at 10 mg/kg, or the compounds of the examples of the present disclosure were given by intravenous (IV) administration at 1 mg/kg.
(2) At 5 min, 15 min, 30 min, 1 h, 2 h, 6 h, 10 h, and 24 h after the intragastric administration or intravenous administration, blood was collected from the orbital venous plexus in heparinized EP tubes (0.6 ML), and centrifuged at 8000 rpm/min for 5 min. The upper plasma was taken, frozen at −20° C. and analyzed by LC-MS/MS.
(3) Plasma drug concentration-time curves were plotted according to blood drug concentration data obtained from the above-mentioned step. Pharmacokinetic parameters were calculated by using WinNonlin software.

Compound: Cn1c(N2CCC3(CC2)Cc2ccccc2[C@H]3N)nc(N)c(Sc2cccc(C#N)c2Cl)c1=O [Example 9, (S)-3-((4-amino-2-(1-amino-1,3-dihydrospiro[indene-2,4′-piperidine]-1′-yl)-1-methyl-6-oxo-1,6-dihydropyrimidin-5-yl)thio)-2-chlorobenzonitrile]
IC50 [1]: 1.5 nM

Compound: Cn1c(N2CCC3(CC2)Oc2ccccc2[C@H]3N)nc2n[nH]c(-c3ccnc(NC4CC4)c3Cl)c2c1=O [Example 51]
IC50 [1]: 6 nM

Compound: Cc1ncccc1Sc1c(N)nc(N2CCC3(CC2)Cc2ccccc2[C@H]3N)n(C)c1=O [Example 6, (S)-6-amino-2-(1-amino-1,3-dihydrospiro[indene-2,4′-piperidine]-1′-yl)-3-methyl-5-((2-methylpyridin-3-yl)thio)pyrimidin-4(3H)-one]
IC50 [1]: 2.8 nM

Compound: Cn1c(N2CCC3(CC2)Cc2ccccc2[C@H]3N)nc(N)c(Sc2ccc(N)nc2Cl)c1=O [Example 4, (S)-6-amino-2-(1-amino-1,3-dihydrospiro[indene-2,4′-piperidine]-1′-yl)-3-methyl-5-((6-amino-2-chloropyridin-3-yl)thio)pyrimidin-4(3H)-one]
IC50 [1]: 5.6 nM

Compound: Cn1c(N2CCC3(CC2)Cc2ccccc2[C@H]3N)nc(N)c(Sc2cccnc2C(F)(F)F)c1=O [Example 1, (S)-6-amino-2-(1-amino-1,3-dihydrospiro[indene-2,4′-piperidin]-1′-yl)-3-methyl-5-((2-(trifluoromethyl)pyridin-3-yl)thio)pyrimidin-4(3H)-one]
IC50 [1]: 1.6 nM

Compound: Nc1nccc(Sc2cnc(N3CCC4(CC3)Oc3ccccc3[C@H]4N)n3ccnc23)c1F [Example 47, (R)-1′-(8-(((2-amino-3-fluoropyridin-4-yl)thio)imidazo[1,2-c]pyrimidin-5-yl)-3H-spiro[benzofuran-2,4′-piperidin]]-3-amine]
IC50 [1]: 16.7 nM

Compound: Nc1nc(N2CCC3(CC2)Oc2ccccc2[C@H]3N)cnc1Sc1ccnc(N)c1Cl [Compound A]
IC50 [1]: 18.3 nM
bioavailability ([2]; oral): 51.2%

Compound: Cn1c(N2CCC3(CC2)Cc2ccccc2[C@H]3N)nc(N)c(Sc2ccnc(N)c2Cl)c1=O [Example 8]
IC50 [1]: 3.3 nM

More lines, in order of falling IC50 [1], values ahead:

IC50 [1]: 13.3 nM
Compound: COc1cccc(-c2c(C)nc(N3CCC4(CC3)Oc3ccccc3[C@H]4N)n3ccnc23)c1Cl [Example 49, (R)-1′-(8-(2-chloro-3-methoxyphenyl)-7-methylimidazo[1,2-c]pyrimidin-5-yl)-3H-spiro[benzofuran-2,4′-piperidine]-3-amine]

IC50 [1]: 12 nM
bioavailability ([2]; po): 81.2%
AUC(0-inf) ([2]; po): 37000 ng·h/mL
AUC(0-t) ([2]; po): 24200 ng·h/mL
Cmax ([2]; po): 1890 ng/mL
half-life ([2]; po): 15.6 h
Compound: Cc1nc(N2CCC3(CC2)Oc2ccccc2[C@H]3N)n2ccnc2c1-c1cccc(Cl)c1Cl [Example 48, (R)-1′-(8-(2,3-dichlorophenyl)-7-methylimidazo[1,2-c]pyrimidin-5-yl)-3H-spiro[benzofuran-2,4′-piperidine]-3-amine]

IC50 [1]: 8.5 nM
Compound: Nc1nccc(Sc2cnc(N3CCC4(CC3)Cc3ncccc3[C@H]4N)n3ccnc23)c1Cl [Example 46, (S)-1′-(8-((2-amino-3-chloropyridin-4-yl)thio)imidazo[1,2-c]pyrimidin-5-yl)-5,7-dihydrospiro[cyclopenta[b]pyridine-6,4′-piperidine]-5-amine]

IC50 [1]: 4.9 nM
bioavailability ([2]; po): 74.3%
AUC(0-inf) ([2]; po): 7410 ng·h/mL
AUC(0-t) ([2]; po): 6520 ng·h/mL
Cmax ([2]; po): 1390 ng/mL
half-life ([2]; po): 3 h
Compound: Cn1c(N2CCC3(CC2)Oc2ccccc2[C@H]3N)nc(N)c(Sc2cccnc2C(F)(F)F)c1=O [Example 53, (R)-6-amino-2-(3-amino-3H-spiro[benzofuran-2,4′-piperidine]-1′-yl)-3-methyl-5-((2-(trifluoromethyl)pyridin-3-yl)thio)pyrimidin-4(3H)-one]

IC50 [1]: 3.9 nM
bioavailability ([2]; po): 78.3%
AUC(0-inf) ([2]; po): 21600 ng·h/mL
AUC(0-t) ([2]; po): 19400 ng·h/mL
Cmax ([2]; po): 1590 ng/mL
half-life ([2]; po): 7.3 h
Compound: Nc1nccc(Sc2cnc(N3CCC4(CC3)Oc3ccccc3[C@H]4N)n3ccnc23)c1Cl [Example 45]
